Activity calls are given as the source filed them. No cut-off for these calls is given here.
Tests used:
Crotalus adamanteus [1] = assay: Activity of Crotalus adamanteus venom PLA2 assessed as 1-hexadecanoyl-2-(1-pyrenedecanoyl)-sn-glycero-3-phosphoglycerol hydrolysis at 0.30 uM
Crotalus adamanteus [2] = assay: Activity of Crotalus adamanteus venom PLA2 assessed as 1-hexadecanoyl-2-(1-pyrenedecanoyl)-sn-glycero-3-phosphoglycerol hydrolysis at 0.15 uM
[3] = Inhibition of Crotalus adamanteus venom PLA2 assessed as effect on 1-hexadecanoyl-2-(1-pyrenedecanoyl)-sn-glycero-3-phosphoglycerol hydrolysis at 0.30 uM
Crotalus adamanteus [4] = assay: Inhibition of Crotalus adamanteus venom PLA2-induced edema in Swiss mouse at 50 ug, id; assay type: functional, organism-based
[5] = Inhibition of Crotalus adamanteus venom PLA2 assessed as effect on 1-hexadecanoyl-2-(1-pyrenedecanoyl)-sn-glycero-3-phosphoglycerol hydrolysis at 0.15 uM

Row | Compound | Km (Crotalus adamanteus [1]) | Vmax (Crotalus adamanteus [1]) | Km (Crotalus adamanteus [2]) | Vmax (Crotalus adamanteus [2]) | Ki [3] | Activity (Crotalus adamanteus [4]) | Ki [5]
1 | CC(=O)c1c(O)cc(O)cc1O [2,4,6-TRIHYDROXYACETOPHENONE] | 28.2 mM | 18.3 nmol/min | 15.1 mM | 18 nmol/min | 8.74 nM | Active | 8.9 nM
2 | Oc1cc(O)cc(O)c1 [PHLOROGLUCINOL] | 23.2 mM | 18 nmol/min | 12.1 mM | 18.1 nmol/min | 8.86 nM | Active | 8.77 nM
3 | CC(=O)c1c(O)cccc1O | 7.78 mM | 18 nmol/min | 4.25 mM | 18.2 nmol/min | 31.2 nM | – | 30.1 nM
4 | CC(=O)c1ccc(O)cc1O | 7.57 mM | 18.2 nmol/min | 4.03 mM | 18.1 nmol/min | 32.1 nM | – | 33.3 nM
5 | Oc1cccc(O)c1 [RESORCINOL] | 24.8 mM | 18 nmol/min | 12.6 mM | 18.1 nmol/min | 8.72 nM | Active | 8.83 nM
